According to ChEMBL document CHEMBL1123971, “Synthesis, platelet aggregation inhibitory activity, and in vivo antithrombotic activity of new 1,4-dihydropyridines” (J Med Chem, 1988):
Where “and” joins values, the source holds several entries; their conditions need not be identical. Equal entries are not always repeated.

Assays:
Felis catus [1] = assay: Effect of intraperitoneal infusion on respiration frequency in Anesthetized cats at a dose of 200 mg/kg at 90 min; format: functional
Felis catus [2] = assay: Effect of intraperitoneal infusion on systolic pressure in Anesthetized cats at a dose of 200 mg/kg at 135 min; format: functional
Felis catus [3] = assay: Effect of intraperitoneal infusion on respiration frequency in Anesthetized cats at a dose of 200 mg/kg at 18 0 min; format: functional
Felis catus [4] = assay: Effect of intraperitoneal infusion on diastolic pressure in Anesthetized cats at a dose of 200 mg/kg at 60 min; format: functional
Felis catus [5] = assay: Effect of intraperitoneal infusion on diastolic pressure in Anesthetized cats at a dose of 200 mg/kg at 135 min; format: functional
Felis catus [6] = assay: Effect of intraperitoneal infusion on respiration frequency in Anesthetized cats at a dose of 200 mg/kg at 45 min; format: functional
Cavia porcellus [7] = organism: Cavia porcellus; assay: Effect on guinea pig artia (beats/min), at the a dose of 0 M; format: functional
Cavia porcellus [8] = organism: Cavia porcellus; assay: Chronotropic activity on left and right guinea pig artia (beats/min), at 90 min; format: functional
Cavia porcellus [9] = organism: Cavia porcellus; assay: Chronotropic activity on left and right guinea pig artia (beats/min), at 30 min; format: functional
Felis catus [10] = assay: Effect of intraperitoneal infusion on respiration frequency in Anesthetized cats at a dose of 200 mg/kg at 165 min; format: functional
Cavia porcellus [11] = organism: Cavia porcellus; assay: Chronotropic activity on left and right guinea pig artia (beats/min), at 150 min; format: functional
Oryctolagus cuniculus [12] = organism: Oryctolagus cuniculus; assay: Effect on 35 mM K+-induced contraction on rabbit aorta at a dose of 10E-7 mol/L; format: functional
Cavia porcellus [13] = organism: Cavia porcellus; assay: Chronotropic activity on left and right guinea pig artia (beats/min), at 75 min; format: functional
Oryctolagus cuniculus [14] = organism: Oryctolagus cuniculus; assay: Effect on 35 mM K+-induced contraction on rabbit aorta at a dose of 3*10e-8 mol/L; format: functional
Felis catus [15] = assay: Effect of intravenous infusion on cardiac frequency in Anesthetized cats at a dose of 3 mg/kg at 20 min; format: functional, Heart
Felis catus [16] = assay: Effect of intraperitoneal infusion on diastolic pressure in Anesthetized cats at a dose of 200 mg/kg at 15 min; format: functional
Felis catus [17] = assay: Effect of intraperitoneal infusion on diastolic pressure in Anesthetized cats at a dose of 200 mg/kg at 30 min; format: functional
Felis catus [18] = assay: Effect of intravenous infusion on respiration frequency in Anesthetized cats at a dose of 3 mg/kg at 20 min; format: functional
Felis catus [19] = assay: Effect of intravenous infusion of compound on diastolic pressure in Anesthetized cats at a dose of 3 mg/kg at 20 min; format: functional
Felis catus [20] = assay: Effect of intravenous infusion on cardiac frequency in Anesthetized cats at a dose of 1.50 mg/kg at 10 min; format: functional, Heart; conditions: dose 1.5 mg/kg
Felis catus [21] = assay: Effect of intraperitoneal infusion of compound on cardiac frequency in Anesthetized cats at a dose of 200 mg/kg at 105 min; format: functional, Heart
Felis catus [22] = assay: Effect of intraperitoneal infusion on respiration frequency in Anesthetized cats at a dose of 200 mg/kg at 15 min; format: functional
Felis catus [23] = assay: Effect of intraperitoneal infusion on diastolic pressure in Anesthetized cats at a dose of 200 mg/kg at 105 min; format: functional
Felis catus [24] = assay: Effect of intravenous infusion on diastolic pressure in Anesthetized cats at a dose of 0 mg/kg at 0 min; format: functional
Felis catus [25] = assay: Effect of intraperitoneal infusion on diastolic pressure in Anesthetized cats at a dose of 200 mg/kg at 120 min; format: functional
Felis catus [26] = assay: Effect of intraperitoneal infusion of compound on cardiac frequency in Anesthetized cats at a dose of 200 mg/kg at 180 mins; format: functional, Heart
Felis catus [27] = assay: Effect of intravenous infusion on systolic pressure in Anesthetized cats at a dose of 0.15 mg/kg at 1 min; format: functional
Felis catus [28] = assay: Effect of intraperitoneal infusion of compound on cardiac frequency in Anesthetized cats at a dose of 200 mg/kg at 60 min; format: functional, Heart
Cavia porcellus [29] = organism: Cavia porcellus; assay: Chronotropic activity on left and right guinea pig artia (beats/min), at 45 min; format: functional
Felis catus [30] = assay: Effect of intraperitoneal infusion on respiration frequency in Anesthetized cats at a dose of 200 mg/kg at 105 min; format: functional
Felis catus [31] = assay: Effect of intraperitoneal infusion on respiration frequency in Anesthetized cats at a dose of 200 mg/kg at 60 min; format: functional
Felis catus [32] = assay: Effect of intraperitoneal infusion of compound on cardiac frequency in Anesthetized cats at a dose of 200 mg/kg at 0 min; format: functional, Heart
Oryctolagus cuniculus [33] = organism: Oryctolagus cuniculus; assay: Effect on 35 mM K+-induced contraction on rabbit aorta at a dose of 3*10e-7 mol/L; format: functional
Felis catus [34] = assay: Effect of intraperitoneal infusion on respiration frequency in Anesthetized cats at a dose of 200 mg/kg at 75 min; format: functional
Felis catus [35] = assay: Effect of intraperitoneal infusion on diastolic pressure in Anesthetized cats at a dose of 200 mg/kg at 180 min; format: functional
Felis catus [36] = assay: Effect of intraperitoneal infusion on respiration frequency in Anesthetized cats at a dose of 200 mg/kg at 150 min; format: functional
Felis catus [37] = assay: Effect of intraperitoneal infusion on diastolic pressure in Anesthetized cats at a dose of 200 mg/kg at 75 min; format: functional
Felis catus [38] = assay: Effect of intraperitoneal infusion on diastolic pressure in Anesthetized cats at a dose of 200 mg/kg at 150 min; format: functional
Felis catus [39] = assay: Effect of intraperitoneal infusion of compound on cardiac frequency in Anesthetized cats at a dose of 200 mg/kg at 165 min; format: functional, Heart
Cavia porcellus [40] = organism: Cavia porcellus; assay: Effect on guinea pig artia (beats/min), at the a dose of 10e-7 M; format: functional
Felis catus [41] = assay: Effect on respiration frequency in Anesthetized cats at a dose of 2.25 mg/kg at 15 min; format: functional
Felis catus [42] = assay: Effect of intravenous infusion on diastolic pressure in Anesthetized cats at a dose of 1.50 mg/kg at 10 min; format: functional; conditions: dose 1.5 mg/kg
Cavia porcellus [43] = organism: Cavia porcellus; assay: Effect on guinea pig artia (beats/min), at the a dose of 10e-6 M; format: functional
Mus musculus = organism: Mus musculus; assay: Dose required to protect 50% of tested mice against experimental antithrombosis.; format: functional
Felis catus [44] = assay: Effect of intraperitoneal infusion on respiration frequency in Anesthetized cats at a dose of 200 mg/kg at 30 min; format: functional
Felis catus [45] = assay: Effect of intraperitoneal infusion on systolic pressure in Anesthetized cats at a dose of 200 mg/kg at 105 min; format: functional
Felis catus [46] = assay: Effect of intraperitoneal infusion of compound on cardiac frequency in Anesthetized cats at a dose of 200 mg/kg at 120 min; format: functional, Heart
Felis catus [47] = assay: Effect of intraperitoneal infusion on systolic pressure in Anesthetized cats at a dose of 200 mg/kg at 180 min; format: functional

## CCO/C(O)=C1\C(C)=NC(C)=C(C(=O)OCCN2C(=O)c3ccccc3S2(=O)=O)C1C (stereo unspecified)
Felis catus [1]
  Respiratory frequency: 12 r.p.m.
Felis catus [2]
  Arterial pressure: 140 mmHg
Felis catus [3]
  Respiratory frequency: 15 r.p.m.
Felis catus [4]
  Arterial pressure: 85 mmHg
Felis catus [5]
  Arterial pressure: 80 mmHg
Felis catus [6]
  Respiratory frequency: 14 r.p.m.
Cavia porcellus [7]
  Beats/min: 183
  Control: 100%
Cavia porcellus [8]
  Beats/min: 133
  Control: 97.1%
Cavia porcellus [9]
  Beats/min: 138
  Control: 100.7%
Felis catus [10]
  Respiratory frequency: 15 r.p.m.
Cavia porcellus [11]
  Beats/min: 129
  Control: 94.2%
Oryctolagus cuniculus [12]
  Inhibition: 12.6%
Cavia porcellus [13]
  Beats/min: 134
  Control: 97.8%
Oryctolagus cuniculus [14]
  Inhibition: 0%
Felis catus [15]
  Cardiac frequency: 216 beats min-1
Felis catus [16]
  Arterial pressure: 90 mmHg
Felis catus [17]
  Arterial pressure: 90 mmHg
Felis catus [18]
  Respiratory frequency: 18 r.p.m.
Felis catus [19]
  Arterial pressure: 110 mmHg
Felis catus [20]
  Cardiac frequency: 210 beats min-1
Felis catus [21]
  Cardiac frequency: 259 beats min-1
Felis catus [22]
  Respiratory frequency: 14 r.p.m.
Felis catus [23]
  Arterial pressure: 87 mmHg
Felis catus [24]
  Arterial pressure: 115 mmHg
Felis catus [25]
  Arterial pressure: 85 mmHg
Felis catus [26]
  Cardiac frequency: 276 beats min-1
Felis catus [27]
  Arterial pressure: 165 mmHg
Felis catus [28]
  Cardiac frequency: 256 beats min-1
Cavia porcellus [29]
  Beats/min: 138
  Control: 100.4%
Felis catus [30]
  Respiratory frequency: 12 r.p.m.
Felis catus [31]
  Respiratory frequency: 13 r.p.m.
Felis catus [32]
  Cardiac frequency: 260 beats min-1
Oryctolagus cuniculus [33]
  Inhibition: 23.89%
Felis catus [34]
  Respiratory frequency: 12 r.p.m.
Felis catus [35]
  Arterial pressure: 80 mmHg
Felis catus [36]
  Respiratory frequency: 15 r.p.m.
Felis catus [37]
  Arterial pressure: 90 mmHg
Felis catus [38]
  Arterial pressure: 80 mmHg
Felis catus [39]
  Cardiac frequency: 278 beats min-1
Cavia porcellus [40]
  Beats/min: 181
  Control: 98.6%
Felis catus [41]
  Respiratory frequency: 19 r.p.m.
Felis catus [42]
  Arterial pressure: 110 mmHg
Cavia porcellus [43]
  Beats/min: 181
  Control: 98.5%
Mus musculus
  ED50: 2.23 µmol/kg and 1 mg/kg
Felis catus [44]
  Respiratory frequency: 13 r.p.m.
Felis catus [45]
  Arterial pressure: 140 mmHg
Felis catus [46]
  Cardiac frequency: 261 beats min-1
Felis catus [47]
  Arterial pressure: 145 mmHg
